{"source": "patent US20100331297A1", "about": "“MODULATION OF PROTEIN TRAFFICKING” (FOLDRX PHARMACEUTICALS, INC., priority 2007, published 2010)", "key": {"ΔF508 CFTR [1]": {"biological_target": "T1, ΔF508 CFTR (Homo sapiens, UniProt P13569, DEL508-508)", "T1 sequence (P13569 with tags, fused parts or gaps DEL508-508)": "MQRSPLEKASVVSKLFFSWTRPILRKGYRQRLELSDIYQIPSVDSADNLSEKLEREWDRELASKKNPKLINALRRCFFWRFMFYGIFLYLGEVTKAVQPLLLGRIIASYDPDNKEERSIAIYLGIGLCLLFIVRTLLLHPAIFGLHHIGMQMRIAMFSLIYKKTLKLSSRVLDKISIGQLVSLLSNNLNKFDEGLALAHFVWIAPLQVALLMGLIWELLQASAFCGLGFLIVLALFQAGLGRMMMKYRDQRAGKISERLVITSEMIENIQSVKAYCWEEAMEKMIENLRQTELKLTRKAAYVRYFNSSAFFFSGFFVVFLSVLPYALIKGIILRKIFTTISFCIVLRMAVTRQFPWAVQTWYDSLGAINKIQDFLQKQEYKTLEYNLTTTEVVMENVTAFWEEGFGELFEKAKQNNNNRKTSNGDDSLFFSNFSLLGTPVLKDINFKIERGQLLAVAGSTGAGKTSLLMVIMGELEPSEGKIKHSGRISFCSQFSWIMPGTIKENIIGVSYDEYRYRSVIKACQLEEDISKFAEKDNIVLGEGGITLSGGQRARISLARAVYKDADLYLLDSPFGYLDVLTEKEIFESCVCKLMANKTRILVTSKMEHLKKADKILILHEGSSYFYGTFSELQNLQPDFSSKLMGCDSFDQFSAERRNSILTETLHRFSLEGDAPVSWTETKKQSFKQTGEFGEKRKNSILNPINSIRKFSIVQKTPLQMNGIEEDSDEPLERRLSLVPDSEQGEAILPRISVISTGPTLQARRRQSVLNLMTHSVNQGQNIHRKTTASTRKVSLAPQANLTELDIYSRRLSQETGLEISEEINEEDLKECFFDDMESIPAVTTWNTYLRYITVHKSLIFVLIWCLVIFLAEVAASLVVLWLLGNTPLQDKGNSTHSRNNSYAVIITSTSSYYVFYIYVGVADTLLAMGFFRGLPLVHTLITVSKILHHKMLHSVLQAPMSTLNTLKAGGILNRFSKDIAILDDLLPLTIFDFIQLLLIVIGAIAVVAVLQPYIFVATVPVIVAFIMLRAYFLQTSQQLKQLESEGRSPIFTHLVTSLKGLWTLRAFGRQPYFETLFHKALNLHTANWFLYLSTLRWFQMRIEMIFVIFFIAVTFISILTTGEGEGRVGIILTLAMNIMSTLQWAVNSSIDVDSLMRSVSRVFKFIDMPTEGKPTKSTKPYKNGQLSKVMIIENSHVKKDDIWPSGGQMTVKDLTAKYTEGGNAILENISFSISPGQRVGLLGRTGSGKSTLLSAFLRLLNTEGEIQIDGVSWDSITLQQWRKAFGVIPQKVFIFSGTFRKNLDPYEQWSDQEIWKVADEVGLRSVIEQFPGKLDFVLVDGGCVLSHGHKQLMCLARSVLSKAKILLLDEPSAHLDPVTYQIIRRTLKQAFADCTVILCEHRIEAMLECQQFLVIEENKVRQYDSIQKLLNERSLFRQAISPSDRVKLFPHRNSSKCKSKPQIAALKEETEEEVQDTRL", "test": "Ussing chamber assay, short-circuit current in FRT cells stably expressing ΔF508 CFTR", "format": "cell-based", "set-up": "expressed in transfected cells; host or cells: Fischer rat thyroid (FRT) cells", "conditions": "FRT ΔF508 CFTR monolayers treated 24 hours; forskolin, isobutylmethylxanthine, genistein", "procedure": "Ussing Chamber Assay: Fischer rat thyroid (FRT) cells stably expressing ΔF508 CFTR (cystic fibrosis transmembrane conductance regulator) were cultured as previously described in Am J. Physiol. (1994) 266 L405-413. Monolayers of cells were grown on Snapwell inserts (Corning Inc.) at the air/liquid interface. The monolayers were treated with compound for 24 hours. The inserts are mounted in Ussing chambers (Harvard Apparatus) and short-circuit currents are measured using a voltage clamp apparatus (WPI, Inc.). A mucosal to serosal gradient in chloride concentration is imposed and the basolateral membrane is permeabilized using amphotericin. Short circuit currents are measured upon addition of the agonists forskolin, isobutylmethylxanthine, and genistein to maximally activate CFTR."}, "ΔF508 CFTR [2]": {"biological_target": "T1, ΔF508 CFTR", "test": "Stabilization of ΔF508 CFTR in CFBE cells (western blot, densitometry)", "format": "cell-based", "conditions": "16 hours at 37° C.", "source_text": "In addition, efficacy of a compound can be evaluated before (first in time), concomitantly or subsequently to the above-mentioned test modalities by monitoring, e.g., (i) modulation (e.g., an improvement) of the stability of a trafficking defective protein, (ii) modulation (e.g., an improvement) of proper, physiological trafficking of the trafficking defective protein, or (iii) modulation (e.g., a restoration) in one or more functions of a trafficking defective protein. For example, in some cases, proteins (e.g., protein mutants such as ΔF508 CFTR) are prematurely degraded. Thus, the efficacy of a given compound to modulate protein trafficking can be determined by monitoring the stability of a protein in the presence as compared to the absence of the compound. For example, cells expressing a trafficking defective protein (e.g., expressing endogenously or expressing an exogenous transgene encoding a trafficking defective protein such as ΔF508 CFTR) can be cultured in the presence or absence of a compound for at least 1 hour (e.g., at least 2 hours, at least 4 hours, at least 6 hours, at least 8 hours, at least 12 hours, at least 16 hours, at least 24 hours, at least 36 hours, or at least 48 hours). Cell lysates can be prepared from the different populations of cells, suspended in Laemmli buffer (with or without reducing agent) and subjected to sodium dodecyl sulfate-polyacrylamide gel electrophoresis (SDS-PAGE). Using antibodies that specifically recognize the trafficking defective protein (e.g., CFTR), the amount of the protein in the presence as compared to in the absence of a compound can be determined by western or dot-blotting techniques. […] Where a modified state (e.g., glycosylation or phosphorylation) of a protein is indicative of increased stability, a change in the modified state of a protein can also be used to determine if a compound stabilizes the trafficking defective protein. For example, the amount of glycosylated CFTR (e.g., ΔF508 CFTR) can be assessed in the presence as compared to the absence of a compound.\nThe compounds can be tested for their ability to stabilize ΔF508 CTFR. CFBE cells, a cell line generated by transformation of cystic fibrosis tracheo-bronchial cells (ΔF508 CTFR homozygous) with SV40 (Bruscia et al. (2002) Gene Ther. 9(11):683-685), can be cultured with 10 μM of the selected compounds, or 10 μM VRT-325 for 16 hours at 37° C. (VRT-325 is described in, e.g., Van Goor et al. (2006) Am. J. Physiol. Lung Cell Mol. Physiol. 290:L1117-L1130). A population of cells can also be cultured with the dimethyl sulfoxide (DMSO) solvent as a control.\nFollowing incubation, cells were lysed, solubilized in Laemmli buffer, and subjected to SDS-PAGE. CFTR protein were visualized by western blotting using an antibody specific for CFTR. Culturing CFBE cells with compound 25 (see Table I for structure) increased the amount of cellular ΔF508 CFTR protein.\nThe effect of different concentrations of compound 25 on ΔF508 CFTR was tested in a dose response experiment. […] The relative amounts of glysosylated and unglycosylated ΔF508 CFTR protein were visualized by western blotting (FIG. 10A), and the band intensities wer quantitated by scanning and densitometry (FIG. 10B). […] The relative amounts of glysosylated and unglycosylated ΔF508 CFTR protein were visualized by western blotting (FIG. 11A), and the band intensities wer quantitated by scanning and densitometry (FIG. 11B)."}}}
{"smiles": "CC(C)(C)n1nc(-c2ccc(Cl)cc2)c2c(N)ncnc21", "note": "[compound 25]", "values": [{"measurement": "short circuit current after the addition of all three agonists", "setting": "ΔF508 CFTR [1]", "value": "~65", "unit": "uA/cm^2"}, {"measurement": "amount of cellular ΔF508 CFTR protein (western blot)", "setting": "ΔF508 CFTR [2]; 10 μM", "value": "increased"}, {"measurement": "amount of the glycosylated form of ΔF508 CFTR (western blot)", "setting": "ΔF508 CFTR [2]; 10 μM", "value": "increased"}, {"measurement": "effect on stabilizing ΔF508 CFTR relative to VRT-325", "setting": "ΔF508 CFTR [2]; 10 μM", "value": "comparable or better"}, {"measurement": "glycosylated (Band B) ΔF508 CFTR protein vs absence of compound, dose response", "setting": "ΔF508 CFTR [2]; 1.25-10 μM (compound 25), 1-10 μM (compound 5)", "value": "increased"}]}
